From US8574563B2 (Bristol-Myers Squibb Company, priority 2006, dated 2013)

The compounds below were run on HCV 1b-377-neo replicon cells (assay: HCV replicon assay, HCV 1b-377-neo replicon cells (1b FRET)). Conditions: HCV 1b-377-neo replicon cells; HCV 1b genotype.
Format: cell-based, Hepatitis C virus genotype 1b
How it was run: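 Compounds tested in HCV genotype 1b-377-neo replicon cells with a FRET read-out. Cells resistant to a reference NS5A inhibitor through a Y2065H NS5A mutation were run alongside wild-type cells.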

SMILES | EC50 range against HCV 1b (Table 2, Range)
CCN(CC)[C@@H](C(=O)N1CCC[C@H]1c1ncc(-c2ccc(-c3ccc(-c4cnc([C@@H]5CCCN5C(=O)[C@@H](C(C)C)N(CC)CC)[nH]4)cc3)cc2)[nH]1)C(C)C [Example M10, (2R,2′R)-1,1′-(4,4′-biphenyldiylbis(1H-imidazole-5,2-diyl(2S)-2,1-pyrrolidinediyl))bis(N,N-diethyl-3-methyl-1-oxo-2-butanamine)] | >A
CN(C)[C@@H](C(=O)N1CCC[C@H]1c1ncc(-c2ccc(-c3ccc(-c4cnc([C@@H]5CCCN5C(=O)CNC(=O)c5ccccc5)[nH]4)cc3)cc2)[nH]1)c1ccccc1 [Example 94-6, N-(2-((2S)-2-(5-(4′-(2-((2S)-1-((2R)-2-(dimethylamino)-2-phenylacetyl)-2-pyrrolidinyl)-1H-imidazol-5-yl)-4-biphenylyl)-1H-imidazol-2-yl)-1-pyrrolidinyl)-2-oxoethyl)benzamide] | C-D

Same assay, conditions: HCV 1b-377-neo replicon cells; HCV 1b genotype; read-out: EC50 range against HCV 1b (Table 2, Range)

SMILES | EC50 [nM]
COC(=O)N[C@@H](C(=O)N1CCC[C@H]1c1ncc(-c2ccc(-c3ccc(-c4cnc([C@@H]5CCCN5C(=O)[C@@H]5CCCN5C)[nH]4)cc3)cc2)[nH]1)c1ccccc1 [Example 52, methyl ((1R)-2-((2S)-2-(5-(4′-(2-((2S)-1-(1-methyl-L-propyl)-2-pyrrolidinyl)-1H-imidazol-5-yl)-4-biphenylyl)-1H-imidazol-2-yl)-1-pyrrolidinyl)-2-oxo-1-phenylethyl)carbamate] | 0.001 to 0.999

Same assay, conditions: Hepatitis C virus, HCV 1b-377-neo replicon cells; HCV 1b genotype; read-out: EC50 range against HCV 1b (Table 2, Range)

SMILES | EC50 [nM]
COC(=O)N[C@@H](C(=O)N1CCC[C@H]1c1ncc(-c2ccc(-c3ccc(-c4cnc([C@@H]5CCCN5C(=O)[C@H](NC(=O)OC)c5ccccc5)[nH]4)cc3CN(C)C)cc2)[nH]1)c1ccccc1 [Example M121] | 100 to 999
COC(=O)N[C@@H](C(=O)N1CCC[C@H]1c1ncc(-c2ccc(-c3ccc(-c4cnc([C@@H]5CCCN5C(=O)[C@@H](C)O)[nH]4)cc3)cc2)[nH]1)c1ccccc1 [Example 35, methyl ((1R)-2-((2S)-2-(5-(4′-(2-((2S)-1-((2R)-2-hydroxypropanoyl)-2-pyrrolidinyl)-1H-imidazol-5-yl)-4-biphenylyl)-1H-imidazol-2-yl)-1-pyrrolidinyl)-2-oxo-1-phenylethyl)carbamate] | 0.001 to 0.999
COC(=O)N[C@H](C(=O)N1CCC[C@H]1c1nc(-c2ccc(-c3ccc(-c4c[nH]c([C@@H]5CCCN5C(=O)[C@@H](NC5CCOCC5)C(C)C)n4)cc3)cc2)c[nH]1)C(C)C [Example F49, methyl ((1S)-2-methyl-1-(((2S)-2-(4-(4′-(2-((2S)-1-(N-(tetrahydro-2H-pyran-4-yl)-L-valyl)-2-pyrrolidinyl)-1H-imidazol-4-yl)-4-biphenylyl)-1H-imidazol-2-yl)-1-pyrrolidinyl)carbonyl)propyl)carbamate] | 1 to 99
COC(=O)N[C@H](C(=O)N1CCC[C@H]1c1ncc(-c2ccc(-c3ccc(-c4cnc([C@@H]5CCCN5C(=O)[C@@H](NC(=O)OC)C(C)OC)[nH]4)c(F)c3)cc2F)[nH]1)C(C)C (stereo in doubt) [Example D56, methyl ((1S,2R)-1-(((2S)-2-(5-(3,3′-difluoro-4′-(2-((2S)-1-(N-(methoxycarbonyl)-L-valyl)-2-pyrrolidinyl)-1H-imidazol-5-yl)-4-biphenylyl)-1H-imidazol-2-yl)-1-pyrrolidinyl)carbonyl)-2-methoxypropyl) carbamate] | 0.001 to 0.999
CCN(CC)[C@@H](C(=O)N1CCC[C@H]1c1ncc(-c2ccc(-c3ccc(-c4cnc([C@@H]5CCCN5C(=O)[C@@H]5CCC[C@H]5NC(=O)OC)[nH]4)cc3)cc2)[nH]1)c1ccccc1 [cj-109, methyl ((1R,2R)-2-(((2S)-2-(5-(4′-(2-((2S)-1-((2R)-2-(diethylamino)-2-phenylacetyl)-2-pyrrolidinyl)-1H-imidazol-5-yl)-4-biphenylyl)-1H-imidazol-2-yl)-1-pyrrolidinyl)carbonyl)cyclopentyl)carbamate] | 0.001 to 0.999
COC(=O)N[C@@H](C(=O)N1CCC[C@H]1c1ncc(-c2ccc(-c3ccc(-c4cnc([C@@H]5CCCN5C(=O)C[C@@H]5CCCN5C(=O)OC(C)(C)C)[nH]4)cc3)cc2)[nH]1)c1ccccc1 [Example 84-18, tert-butyl (2S)-2-(2-((2S)-2-(5-(4′-(2-((2S)-1-((2R)-2-((methoxycarbonyl)amino)-2-phenylacetyl)-2-pyrrolidinyl)-1H-imidazol-5-yl)-4-biphenylyl)-1H-imidazol-2-yl)-1-pyrrolidinyl)-2-oxoethyl)-1-pyrrolidinecarboxylate] | 1 to 99
O=C(Cc1cccs1)N1CCC[C@H]1c1ncc(-c2ccc(-c3ccc(-c4cnc([C@@H]5CCCN5C(=O)[C@@H](c5ccccc5)N5CCCCC5)[nH]4)cc3)cc2)[nH]1 [Example 107-30, 1-((1R)-2-oxo-1-phenyl-2-((2S)-2-(5-(4′-(2-((2S)-1-(2-thienylacetyl)-2-pyrrolidinyl)-1H-imidazol-5-yl)-4-biphenylyl)-1H-imidazol-2-yl)-1-pyrrolidinyl)ethyl)piperidine] | 0.001 to 0.999
COC(=O)N[C@H](C(=O)N1[C@@H](c2ncc(-c3ccc(-c4ccc(-c5cnc([C@H]6C[C@H]7C[C@H]7N6C(=O)[C@@H](NC(=O)OC)C(C)C)[nH]5)cc4)cc3)[nH]2)C[C@H]2C[C@H]21)C(C)C [Example M131, methyl ((1S)-1-(((1R,3R,5R)-3-(5-(4′-(2-((1R,3R,5R)-2-((2S)-2-((methoxycarbonyl)amino)-3-methylbutanoyl)-2-azabicyclo[3.1.0]hex-3-yl)-1H-imidazol-5-yl)-4-biphenylyl)-1H-imidazol-2-yl)-2-azabicyclo[3.1.0]hex-2-yl)carbonyl)-2-methylpropyl)carbamate] | 0.001 to 0.999
CCN(CC)[C@@H](C(=O)N1CCC[C@H]1c1ncc(-c2ccc(-c3ncc(-c4c[nH]c([C@@H]5CCCN5C(=O)[C@@H](NC(=O)OC)C(C)C)n4)cn3)cc2)[nH]1)c1ccccc1 [Example D76] | 0.001 to 0.999
CCN(CC)[C@@H](C(=O)N1CCC[C@H]1c1ncc(-c2ccc(-c3ccc(-c4cnc([C@@H]5CCCN5C(=O)[C@@H]5CCC(=O)N5)[nH]4)cc3)cc2)[nH]1)c1ccccc1 [Example M32, (5S)-5-(((2S)-2-(5-(4′-(2-((2S)-1-((2R)-2-(diethylamino)-2-phenylacetyl)-2-pyrrolidinyl)-1H-imidazol-5-yl)-4-biphenylyl)-1H-imidazol-2-yl)-1-pyrrolidinyl)carbonyl)-2-pyrrolidinone] | 100 to 999
CCN(CC)[C@@H](C(=O)N1CCC[C@H]1c1ncc(-c2ccc(-c3ccc(-c4cnc([C@@H]5CCCN5C(=O)[C@@H](C)O)[nH]4)cc3)cc2)[nH]1)c1ccccc1 [Example M39, (2R)-1-((2S)-2-(5-(4′-(2-((2S)-1-((2R)-2-(diethylamino)-2-phenylacetyl)-2-pyrrolidinyl)-1H-imidazol-5-yl)-4-biphenylyl)-1H-imidazol-2-yl)-1-pyrrolidinyl)-1-oxo-2-propanol] | 1 to 99
COC(=O)N[C@H](C(=O)N1[C@H](c2ncc(-c3ccc(-c4ccc(-c5cnc([C@@H]6C[C@@H]7C[C@@H]7N6C(=O)[C@@H](NC(=O)OC)C(C)(C)O)[nH]5)cc4)cc3)[nH]2)C[C@@H]2C[C@@H]21)C(C)(C)O [Example M125, methyl ((1S)-2-hydroxy-1-(((1S,3S,5S)-3-(5-(4′-(2-((1S,3S,5S)-2-((2S)-3-hydroxy-2-((methoxycarbonyl)amino)-3-methylbutanoyl)-2-azabicyclo[3.1.0]hex-3-yl)-1H-imidazol-5-yl)-4-biphenylyl)-1H-imidazol-2-yl)-2-azabicyclo[3.1.0]hex-2-yl)carbonyl)-2-methylpropyl)carbamate] | 1 to 99
CN(C)[C@@H](C(=O)N1CCC[C@H]1c1ncc(-c2ccc(-c3ccc(-c4cnc([C@@H]5CCCN5C(=O)c5cccc(N6CCCC6)c5)[nH]4)cc3)cc2)[nH]1)c1ccccc1 [Example 94-27, (1R)-N,N-dimethyl-2-oxo-1-phenyl-2-((2S)-2-(5-(4′-(2-((2S)-1-(3-(1-pyrrolidinyl)benzoyl)-2-pyrrolidinyl)-1H-imidazol-5-yl)-4-biphenylyl)-1H-imidazol-2-yl)-1-pyrrolidinyl)ethanamine] | 1 to 99
CCN(CC)[C@@H](C(=O)N1CCC[C@H]1c1ncc(-c2ccc(-c3ccc(-c4cnc([C@@H]5CCCN5C(=O)[C@H](Cc5cn(C)cn5)NC(=O)OC)[nH]4)cc3)cc2)[nH]1)c1ccccc1 [cj-40, methyl ((1S)-2-((2S)-2-(5-(4′-(2-((2S)-1-((2R)-2-(diethylamino)-2-phenylacetyl)-2-pyrrolidinyl)-1H-imidazol-5-yl)-4-biphenylyl)-1H-imidazol-2-yl)-1-pyrrolidinyl)-1-((1-methyl-1H-imidazol-4-yl)methyl)-2-oxoethyl)carbamate] | 0.001 to 0.999
COC(=O)N[C@@H](C(=O)N1CCC[C@H]1c1ncc(-c2ccc(-c3cnc(-c4cnc([C@@H]5CCCN5C(=O)[C@H](NC(=O)OC)c5ccccc5)[nH]4)cn3)cc2)[nH]1)c1ccccc1 [Example 152j-8, methyl ((1R)-2-((2S)-2-(5-(5-(4-(2-((2S)-1-((2R)-2-((methoxycarbonyl)amino)-2-phenylacetyl)-2-pyrrolidinyl)-1H-imidazol-5-yl)phenyl)-2-pyrazinyl)-1H-imidazol-2-yl)-1-pyrrolidinyl)-2-oxo-1-phenylethyl)carbamate] | 0.001 to 0.999
CC(C)[C@H](O)C(=O)N1[C@@H](C)CC[C@H]1c1nc(-c2ccc(-c3ccc(-c4c[nH]c([C@@H]5CC[C@H](C)N5C(=O)[C@@H](O)C(C)C)n4)cc3)cc2)c[nH]1 [Example M161, (2S,2′S)-1,1′-(4,4′-biphenyldiylbis(1H-imidazole-4,2-diyl((2S,5S)-5-methyl-2,1-pyrrolidinediyl)))bis(3-methyl-1-oxo-2-butanol)] | 1 to 99
